We go through one compound from ChEMBL document CHEMBL3886554, “Ring-fused bicyclic pyridyl derivatives as FGFR4 inhibitors” (2016).

This test has as its target Fibroblast growth factor receptor 4 (Homo sapiens, UniProt P22455). As to the kind of experiment: Biochemical Kinase Assay: Liquid handling and incubation steps were done on an Innovadyne Nanodrop Express equipped with a robotic arm (Thermo CatX, Caliper Twister II) and an incubator (Liconic STX40, Thermo Cytomat 2C450). The assay plates were prepared by addition of 50 nl per well of compound solution in 90% DMSO. The kinase reactions were started by stepwise addition of 4.5 ul per well of ….

Sequence of Fibroblast growth factor receptor 4 (P22455 whole entry): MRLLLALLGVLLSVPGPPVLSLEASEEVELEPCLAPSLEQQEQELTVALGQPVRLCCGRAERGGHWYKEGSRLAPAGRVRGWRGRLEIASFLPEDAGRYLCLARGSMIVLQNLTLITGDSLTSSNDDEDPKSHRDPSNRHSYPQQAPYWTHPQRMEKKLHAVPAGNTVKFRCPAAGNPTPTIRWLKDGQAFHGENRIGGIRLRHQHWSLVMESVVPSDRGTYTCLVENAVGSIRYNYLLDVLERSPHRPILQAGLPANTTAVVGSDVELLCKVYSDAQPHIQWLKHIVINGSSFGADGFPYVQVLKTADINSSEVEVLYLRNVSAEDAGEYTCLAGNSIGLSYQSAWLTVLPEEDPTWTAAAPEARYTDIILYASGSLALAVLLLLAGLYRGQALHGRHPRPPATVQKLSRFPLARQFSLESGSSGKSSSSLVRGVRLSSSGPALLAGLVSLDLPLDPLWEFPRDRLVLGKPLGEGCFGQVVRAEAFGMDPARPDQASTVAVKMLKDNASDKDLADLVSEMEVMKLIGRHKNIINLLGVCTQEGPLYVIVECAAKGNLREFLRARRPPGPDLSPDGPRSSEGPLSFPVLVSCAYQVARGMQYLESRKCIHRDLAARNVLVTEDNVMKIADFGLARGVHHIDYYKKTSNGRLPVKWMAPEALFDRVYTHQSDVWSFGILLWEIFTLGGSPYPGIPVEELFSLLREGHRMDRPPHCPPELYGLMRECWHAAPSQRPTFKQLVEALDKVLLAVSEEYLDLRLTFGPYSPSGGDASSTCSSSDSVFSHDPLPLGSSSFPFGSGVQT

One may read the IC50 as the concentration needed to halve the response being measured. High values mean a need for much substance, low ones inhibition by little substance. `CC(C)Oc1cc(NC(=O)N2CCCc3cc(CN(C)C(=O)CO)c(C=O)nc32)ncc1C#N` came in with an IC50 of 0.3 nM.
